Laboratory results reported in article PMC5392334, “Discovery and characterization of a novel irreversible EGFR mutants selective and potent kinase inhibitor CHMFL-EGFR-26 with a distinct binding mode” (Oncotarget, 2017).

Key:
BRSK1 = biological target: T1, BRSK1 (Homo sapiens, UniProt Q8TDC3); experiment: KinomeScan; type: binding; details: read-out: % control
T1 construct: purchased DiscoveRx KINOMEscan

HIPK3 = biological target: T2, HIPK3 (Homo sapiens, UniProt Q9H422); experiment: KinomeScan; type: binding; details: read-out: % control
T2 construct: purchased DiscoveRx KINOMEscan

MAP3K4 = biological target: T3, MAP3K4 (Homo sapiens, UniProt Q9Y6R4); experiment: KinomeScan; type: binding; details: read-out: % control
T3 construct: purchased DiscoveRx KINOMEscan

GSK3A = biological target: T4, GSK3A (Homo sapiens, UniProt P49840); experiment: KinomeScan; type: binding; details: read-out: % control
T4 construct: purchased DiscoveRx KINOMEscan

STK35 = biological target: T5, STK35 (Homo sapiens, UniProt Q8TDR2); experiment: KinomeScan; type: binding; details: read-out: % control
T5 construct: purchased DiscoveRx KINOMEscan

RIOK2 = biological target: T6, RIOK2 (Homo sapiens, UniProt Q9BVS4); experiment: KinomeScan; type: binding; details: read-out: % control
T6 construct: purchased DiscoveRx KINOMEscan

NEK5 = biological target: T7, NEK5 (Homo sapiens, UniProt Q6P3R8); experiment: KinomeScan; type: binding; details: read-out: % control
T7 construct: purchased DiscoveRx KINOMEscan

ERBB4 = biological target: T8, ERBB4 (Homo sapiens, UniProt Q15303); experiment: KinomeScan; type: binding; details: read-out: % control
T8 construct: purchased DiscoveRx KINOMEscan

PLK3 = biological target: T9, PLK3 (Homo sapiens, UniProt Q9H4B4); experiment: KinomeScan; type: binding; details: read-out: % control
T9 construct: purchased DiscoveRx KINOMEscan

CSNK2A2 = biological target: T10, CSNK2A2 (Homo sapiens, UniProt P19784); experiment: KinomeScan; type: binding; details: read-out: % control
T10 construct: purchased DiscoveRx KINOMEscan

EGFR = biological target: T11, EGFR (Homo sapiens, UniProt P00533); experiment: KinomeScan; type: binding; details: read-out: % control
T11 construct: purchased DiscoveRx KINOMEscan

ALK = biological target: T12, ALK (Homo sapiens, UniProt Q9UM73); experiment: KinomeScan; type: binding; details: read-out: % control
T12 construct: purchased DiscoveRx KINOMEscan

MAP3K3 = biological target: T13, MAP3K3 (Homo sapiens, UniProt Q99759); experiment: KinomeScan; type: binding; details: read-out: % control
T13 construct: purchased DiscoveRx KINOMEscan

CSNK1G2 = biological target: T14, CSNK1G2 (Homo sapiens, UniProt P78368); experiment: KinomeScan; type: binding; details: read-out: % control
T14 construct: purchased DiscoveRx KINOMEscan

DCAMKL1 = biological target: T15, DCAMKL1 (Homo sapiens, UniProt O15075); experiment: KinomeScan; type: binding; details: read-out: % control
T15 construct: purchased DiscoveRx KINOMEscan

CDK4-cyclinD1 = biological target: T16, CDK4-cyclinD1 (Homo sapiens, UniProt P11802); experiment: KinomeScan; type: binding; details: read-out: % control
T16 construct: purchased DiscoveRx KINOMEscan

S6K1 = biological target: T17, S6K1 (Homo sapiens, UniProt P23443); experiment: KinomeScan; type: binding; details: read-out: % control
T17 construct: purchased DiscoveRx KINOMEscan

PRKG2 = biological target: T18, PRKG2 (Homo sapiens, UniProt Q13237); experiment: KinomeScan; type: binding; details: read-out: % control
T18 construct: purchased DiscoveRx KINOMEscan

[1] = biological target: T19, RSK1(Kin.Dom.2-C-terminal) (Homo sapiens, UniProt Q15418); experiment: KinomeScan; type: binding; details: read-out: % control
T19 construct: RSK1(Kin.Dom.2-C-terminal); purchased DiscoveRx KINOMEscan

MEK1 = biological target: T20, MEK1 (Homo sapiens, UniProt Q02750); experiment: KinomeScan; type: binding; details: read-out: % control
T20 construct: purchased Invitrogen (SelectScreen service)

ALK(L1196M) = biological target: T21, ALK(L1196M) (Homo sapiens, UniProt Q9UM73, L1196M); experiment: KinomeScan; type: binding; details: read-out: % control
T21 construct: purchased DiscoveRx KINOMEscan

PRKR = biological target: T22, PRKR (Homo sapiens, UniProt P19525); experiment: KinomeScan; type: binding; details: read-out: % control
T22 construct: purchased DiscoveRx KINOMEscan

[2] = biological target: T23, RPS6KA4(Kin.Dom.1-N-terminal) (Homo sapiens, UniProt O75676); experiment: KinomeScan; type: binding; details: read-out: % control
T23 construct: RPS6KA4(Kin.Dom.1-N-terminal); purchased DiscoveRx KINOMEscan

MTOR = biological target: T24, MTOR (Homo sapiens, UniProt P42345); experiment: KinomeScan; type: binding; details: read-out: % control
T24 construct: purchased DiscoveRx KINOMEscan

ERBB3 = biological target: T25, ERBB3 (Homo sapiens, UniProt P21860); experiment: KinomeScan; type: binding; details: read-out: % control
T25 construct: purchased DiscoveRx KINOMEscan

EPHA8 = biological target: T26, EPHA8 (Homo sapiens, UniProt P29322); experiment: KinomeScan; type: binding; details: read-out: % control
T26 construct: purchased DiscoveRx KINOMEscan

MRCKB = biological target: T27, MRCKB (Homo sapiens, UniProt Q9Y5S2); experiment: KinomeScan; type: binding; details: read-out: % control
T27 construct: purchased DiscoveRx KINOMEscan

PDGFRA = biological target: T28, PDGFRA (Homo sapiens, UniProt P16234); experiment: KinomeScan; type: binding; details: read-out: % control
T28 construct: purchased DiscoveRx KINOMEscan

CDK7 = biological target: T29, CDK7 (Homo sapiens, UniProt P50613); experiment: KinomeScan; type: binding; details: read-out: % control
T29 construct: purchased DiscoveRx KINOMEscan

WNK2 = biological target: T30, WNK2 (Homo sapiens, UniProt Q9Y3S1); experiment: KinomeScan; type: binding; details: read-out: % control
T30 construct: purchased DiscoveRx KINOMEscan

WEE1 = biological target: T31, WEE1 (Homo sapiens, UniProt P30291); experiment: KinomeScan; type: binding; details: read-out: % control
T31 construct: purchased DiscoveRx KINOMEscan

YANK1 = biological target: T32, YANK1 (Homo sapiens, UniProt Q8WU08); experiment: KinomeScan; type: binding; details: read-out: % control
T32 construct: purchased DiscoveRx KINOMEscan

BaF3-FL-EGFR-del19-T790M = experiment: Anti-proliferation, BaF3 isogenic cell lines (CellTiter-Glo); type: cell-based; details: Mus musculus, 72 hours, triplet testing
CDK11 = biological target: T33, CDK11 (Homo sapiens, UniProt Q9BWU1); experiment: KinomeScan; type: binding; details: read-out: % control
T33 construct: purchased DiscoveRx KINOMEscan

FGFR1 = biological target: T34, FGFR1 (Homo sapiens, UniProt P11362); experiment: KinomeScan; type: binding; details: read-out: % control
T34 construct: purchased DiscoveRx KINOMEscan

NEK4 = biological target: T35, NEK4 (Homo sapiens, UniProt P51957); experiment: KinomeScan; type: binding; details: read-out: % control
T35 construct: purchased DiscoveRx KINOMEscan

PRKX = biological target: T36, PRKX (Homo sapiens, UniProt P51817); experiment: KinomeScan; type: binding; details: read-out: % control
T36 construct: purchased DiscoveRx KINOMEscan

VEGFR2 = biological target: T37, VEGFR2 (Homo sapiens, UniProt P35968); experiment: KinomeScan; type: binding; details: read-out: % control
T37 construct: purchased DiscoveRx KINOMEscan

PIK3CA(E542K) = biological target: T38, PIK3CA(E542K) (Homo sapiens, UniProt P42336, E542K); experiment: KinomeScan; type: binding; details: read-out: % control
T38 construct: purchased DiscoveRx KINOMEscan

SRMS = biological target: T39, SRMS (Homo sapiens, UniProt Q9H3Y6); experiment: KinomeScan; type: binding; details: read-out: % control
T39 construct: purchased DiscoveRx KINOMEscan

[3] = test system: BaF3-FL-EGFR-L858R-T790M-C797S; experiment: Anti-proliferation, BaF3 isogenic cell lines (CellTiter-Glo); type: cell-based; details: Mus musculus, 72 hours, triplet testing
RET(M918T) = biological target: T40, RET(M918T) (Homo sapiens, UniProt P07949, M918T); experiment: KinomeScan; type: binding; details: read-out: % control
T40 construct: purchased DiscoveRx KINOMEscan

T12 sequence (Q9UM73 19-1620): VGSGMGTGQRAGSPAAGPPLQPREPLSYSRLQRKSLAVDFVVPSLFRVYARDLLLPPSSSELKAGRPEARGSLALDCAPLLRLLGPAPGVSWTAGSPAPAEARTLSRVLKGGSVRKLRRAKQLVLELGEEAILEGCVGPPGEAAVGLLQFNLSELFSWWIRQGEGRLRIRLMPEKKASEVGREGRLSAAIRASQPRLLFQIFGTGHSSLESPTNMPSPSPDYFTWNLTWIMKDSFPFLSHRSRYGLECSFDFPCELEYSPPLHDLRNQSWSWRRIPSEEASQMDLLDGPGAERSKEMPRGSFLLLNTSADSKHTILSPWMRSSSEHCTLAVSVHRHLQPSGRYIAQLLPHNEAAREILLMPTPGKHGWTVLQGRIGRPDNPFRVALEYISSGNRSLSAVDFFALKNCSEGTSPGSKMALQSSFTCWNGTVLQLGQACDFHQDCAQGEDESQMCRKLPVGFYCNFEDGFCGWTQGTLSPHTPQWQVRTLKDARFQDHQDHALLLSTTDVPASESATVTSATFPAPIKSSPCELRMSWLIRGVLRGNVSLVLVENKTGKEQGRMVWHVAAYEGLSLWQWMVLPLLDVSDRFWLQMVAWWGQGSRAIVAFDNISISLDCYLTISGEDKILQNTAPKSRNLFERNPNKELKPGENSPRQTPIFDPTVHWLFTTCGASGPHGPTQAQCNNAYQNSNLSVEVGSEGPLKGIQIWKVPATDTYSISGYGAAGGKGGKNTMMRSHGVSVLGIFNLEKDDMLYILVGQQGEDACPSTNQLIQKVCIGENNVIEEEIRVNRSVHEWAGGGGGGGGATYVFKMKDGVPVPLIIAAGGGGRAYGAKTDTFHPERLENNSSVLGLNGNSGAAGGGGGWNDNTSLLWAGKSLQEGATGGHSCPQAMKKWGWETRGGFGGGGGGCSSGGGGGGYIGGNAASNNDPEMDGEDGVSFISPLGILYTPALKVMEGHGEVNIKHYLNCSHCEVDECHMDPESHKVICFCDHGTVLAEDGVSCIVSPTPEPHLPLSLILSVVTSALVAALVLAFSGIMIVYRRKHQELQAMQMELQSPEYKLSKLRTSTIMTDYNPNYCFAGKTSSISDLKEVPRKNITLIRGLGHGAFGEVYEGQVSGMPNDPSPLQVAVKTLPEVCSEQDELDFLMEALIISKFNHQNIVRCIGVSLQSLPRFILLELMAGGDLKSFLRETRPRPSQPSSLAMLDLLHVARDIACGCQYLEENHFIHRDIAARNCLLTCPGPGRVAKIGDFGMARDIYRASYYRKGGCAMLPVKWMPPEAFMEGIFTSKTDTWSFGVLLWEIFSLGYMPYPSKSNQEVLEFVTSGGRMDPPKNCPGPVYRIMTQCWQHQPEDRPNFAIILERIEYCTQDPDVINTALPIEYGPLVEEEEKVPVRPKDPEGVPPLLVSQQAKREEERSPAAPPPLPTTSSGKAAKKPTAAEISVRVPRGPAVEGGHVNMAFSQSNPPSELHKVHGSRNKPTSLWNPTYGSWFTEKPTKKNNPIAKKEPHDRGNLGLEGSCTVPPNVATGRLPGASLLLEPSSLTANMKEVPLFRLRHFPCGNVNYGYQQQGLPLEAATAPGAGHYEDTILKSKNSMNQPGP
T18 sequence (Q13237 whole entry): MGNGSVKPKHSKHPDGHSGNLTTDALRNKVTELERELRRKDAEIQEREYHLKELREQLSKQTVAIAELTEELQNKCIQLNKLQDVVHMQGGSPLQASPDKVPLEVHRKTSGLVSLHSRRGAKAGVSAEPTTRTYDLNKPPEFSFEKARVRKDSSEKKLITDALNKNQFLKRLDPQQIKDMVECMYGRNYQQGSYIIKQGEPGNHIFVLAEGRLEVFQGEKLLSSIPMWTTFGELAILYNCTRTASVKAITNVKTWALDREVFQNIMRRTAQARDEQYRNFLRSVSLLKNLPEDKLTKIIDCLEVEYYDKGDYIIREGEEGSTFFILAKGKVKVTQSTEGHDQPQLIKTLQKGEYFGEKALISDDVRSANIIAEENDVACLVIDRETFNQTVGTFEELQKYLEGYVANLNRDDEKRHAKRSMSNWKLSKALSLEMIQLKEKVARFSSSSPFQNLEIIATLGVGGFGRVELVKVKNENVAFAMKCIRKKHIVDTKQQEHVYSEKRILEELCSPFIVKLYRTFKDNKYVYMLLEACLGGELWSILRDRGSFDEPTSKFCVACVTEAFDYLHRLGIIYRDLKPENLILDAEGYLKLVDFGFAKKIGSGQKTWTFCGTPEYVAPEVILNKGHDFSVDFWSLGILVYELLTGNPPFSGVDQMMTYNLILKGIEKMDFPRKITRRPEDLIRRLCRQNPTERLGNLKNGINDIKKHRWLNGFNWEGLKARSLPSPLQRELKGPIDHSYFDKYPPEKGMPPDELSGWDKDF
T13 sequence (Q99759 whole entry): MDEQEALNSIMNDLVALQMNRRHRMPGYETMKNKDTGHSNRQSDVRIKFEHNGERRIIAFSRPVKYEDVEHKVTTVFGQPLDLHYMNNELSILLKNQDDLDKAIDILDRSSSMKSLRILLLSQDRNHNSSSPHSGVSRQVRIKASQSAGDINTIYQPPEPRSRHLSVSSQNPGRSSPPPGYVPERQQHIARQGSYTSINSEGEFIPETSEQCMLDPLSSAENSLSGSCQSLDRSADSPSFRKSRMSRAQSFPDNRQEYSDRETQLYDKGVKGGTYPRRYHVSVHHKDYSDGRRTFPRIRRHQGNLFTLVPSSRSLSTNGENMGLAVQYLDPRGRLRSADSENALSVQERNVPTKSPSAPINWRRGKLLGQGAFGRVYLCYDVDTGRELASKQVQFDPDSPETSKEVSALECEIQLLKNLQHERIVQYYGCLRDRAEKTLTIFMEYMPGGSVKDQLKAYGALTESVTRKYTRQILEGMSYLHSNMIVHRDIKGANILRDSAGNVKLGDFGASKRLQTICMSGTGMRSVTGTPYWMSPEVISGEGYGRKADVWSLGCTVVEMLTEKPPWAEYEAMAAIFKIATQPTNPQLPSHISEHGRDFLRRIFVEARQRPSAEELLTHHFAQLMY
T28 sequence (P16234 24-1089): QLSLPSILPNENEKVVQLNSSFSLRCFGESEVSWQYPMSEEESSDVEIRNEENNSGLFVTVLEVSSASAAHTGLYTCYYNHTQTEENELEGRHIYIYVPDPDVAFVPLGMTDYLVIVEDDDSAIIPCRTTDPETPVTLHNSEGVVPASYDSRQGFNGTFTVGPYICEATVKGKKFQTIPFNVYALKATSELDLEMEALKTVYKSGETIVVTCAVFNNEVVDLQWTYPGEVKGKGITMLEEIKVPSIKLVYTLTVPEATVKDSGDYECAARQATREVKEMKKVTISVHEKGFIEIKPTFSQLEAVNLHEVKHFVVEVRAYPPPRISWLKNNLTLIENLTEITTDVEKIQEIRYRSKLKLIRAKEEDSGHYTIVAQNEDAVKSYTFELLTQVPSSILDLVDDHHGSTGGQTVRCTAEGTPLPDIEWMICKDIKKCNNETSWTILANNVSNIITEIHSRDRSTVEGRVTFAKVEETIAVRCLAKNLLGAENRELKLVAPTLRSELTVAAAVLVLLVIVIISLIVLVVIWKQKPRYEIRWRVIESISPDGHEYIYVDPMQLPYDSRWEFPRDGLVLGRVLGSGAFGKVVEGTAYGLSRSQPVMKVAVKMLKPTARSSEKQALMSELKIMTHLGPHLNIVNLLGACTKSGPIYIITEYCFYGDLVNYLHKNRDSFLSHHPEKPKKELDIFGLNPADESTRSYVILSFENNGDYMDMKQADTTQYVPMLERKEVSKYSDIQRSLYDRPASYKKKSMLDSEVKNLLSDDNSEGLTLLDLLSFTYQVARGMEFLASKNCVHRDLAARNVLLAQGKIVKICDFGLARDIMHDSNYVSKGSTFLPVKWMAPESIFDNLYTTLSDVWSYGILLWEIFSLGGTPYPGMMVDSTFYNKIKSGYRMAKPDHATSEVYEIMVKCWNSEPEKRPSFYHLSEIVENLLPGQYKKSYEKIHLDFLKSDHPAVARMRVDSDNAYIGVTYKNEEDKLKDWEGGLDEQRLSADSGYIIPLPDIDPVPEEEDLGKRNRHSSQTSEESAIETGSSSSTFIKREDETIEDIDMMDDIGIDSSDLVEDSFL
T33 sequence (Q9BWU1 whole entry): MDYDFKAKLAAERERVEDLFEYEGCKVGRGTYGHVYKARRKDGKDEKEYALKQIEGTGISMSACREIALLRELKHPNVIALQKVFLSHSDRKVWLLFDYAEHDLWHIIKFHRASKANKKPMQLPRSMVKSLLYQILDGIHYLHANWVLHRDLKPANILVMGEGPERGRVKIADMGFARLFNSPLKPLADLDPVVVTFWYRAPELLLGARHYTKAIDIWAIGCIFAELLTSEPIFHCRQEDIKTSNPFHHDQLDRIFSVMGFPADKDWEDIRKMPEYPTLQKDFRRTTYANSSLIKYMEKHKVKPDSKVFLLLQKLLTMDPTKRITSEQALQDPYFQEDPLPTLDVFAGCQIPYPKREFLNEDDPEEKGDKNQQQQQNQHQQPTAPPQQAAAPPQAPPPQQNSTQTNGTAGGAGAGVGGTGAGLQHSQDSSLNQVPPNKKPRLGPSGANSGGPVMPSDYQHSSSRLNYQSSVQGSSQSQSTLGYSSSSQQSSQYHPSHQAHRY
T19 sequence (Q15418 392-735 limits assumed): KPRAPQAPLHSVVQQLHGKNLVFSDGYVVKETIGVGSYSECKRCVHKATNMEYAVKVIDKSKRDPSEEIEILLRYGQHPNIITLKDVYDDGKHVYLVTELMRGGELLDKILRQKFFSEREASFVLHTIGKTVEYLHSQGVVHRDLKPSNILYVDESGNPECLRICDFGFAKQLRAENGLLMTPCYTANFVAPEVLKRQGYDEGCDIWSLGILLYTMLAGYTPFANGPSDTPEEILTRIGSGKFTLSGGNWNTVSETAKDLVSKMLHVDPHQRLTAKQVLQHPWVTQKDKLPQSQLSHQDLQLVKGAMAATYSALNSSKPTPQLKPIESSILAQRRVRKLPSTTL
T21 sequence (Q9UM73 19-1620 L1196M): as the sequence (Q9UM73 19-1620) above, with L1178M counted along it

How did the remaining binding at 1 µM (BRSK1) turn out when `C=CC(=O)N1CCC[C@@H](n2nc(-c3ccc(OCc4cccc(C)n4)c(Cl)c3)c3c(N)ncnc32)C1` [CHMFL-EGFR-26] was run?
Its remaining binding at 1 µM is 93%.

What about the remaining binding at 1 µM (HIPK3) of the same molecule?
Its remaining binding at 1 µM is 100%.

And the remaining binding at 1 µM (MAP3K4)?
The remaining binding at 1 µM was 86%.

And the remaining binding at 1 µM (GSK3A)?
The remaining binding at 1 µM was 100%.

And the remaining binding at 1 µM (STK35)?
Its remaining binding at 1 µM is 23%.

What about the remaining binding at 1 µM (RIOK2) of the same molecule?
Its remaining binding at 1 µM is 100%.

And the remaining binding at 1 µM (NEK5)?
The remaining binding at 1 µM was 93%.

What about the remaining binding at 1 µM (ERBB4) of the same molecule?
The remaining binding at 1 µM was 0.45%.

And the remaining binding at 1 µM (PLK3)?
The remaining binding at 1 µM was 85%.

And the remaining binding at 1 µM (CSNK2A2)?
Its remaining binding at 1 µM is 91%.

What about the remaining binding at 1 µM (EGFR) of the same molecule?
The remaining binding at 1 µM was 0.8%.

What about the remaining binding at 1 µM (ALK) of the same molecule?
Its remaining binding at 1 µM is 100%.

And the remaining binding at 1 µM (MAP3K3)?
The remaining binding at 1 µM was 67%.

And the remaining binding at 1 µM (CSNK1G2)?
The remaining binding at 1 µM was 100%.

And the remaining binding at 1 µM (DCAMKL1)?
Its remaining binding at 1 µM is 88%.

And the remaining binding at 1 µM (CDK4-cyclinD1)?
Its remaining binding at 1 µM is 100%.

What about the remaining binding at 1 µM (S6K1) of the same molecule?
The remaining binding at 1 µM was 100%.

And the remaining binding at 1 µM (PRKG2)?
The remaining binding at 1 µM was 100%.

What about the remaining binding at 1 µM [1] of the same molecule?
Its remaining binding at 1 µM is 83%.

What about the remaining binding at 1 µM (MEK1) of the same molecule?
Its remaining binding at 1 µM is 0.3%.

What about the remaining binding at 1 µM (ALK(L1196M)) of the same molecule?
The remaining binding at 1 µM was 100%.

What about the remaining binding at 1 µM (PRKR) of the same molecule?
Its remaining binding at 1 µM is 80%.

What about the remaining binding at 1 µM [2] of the same molecule?
Its remaining binding at 1 µM is 11%.

And the remaining binding at 1 µM (MTOR)?
The remaining binding at 1 µM was 100%.

What about the remaining binding at 1 µM (ERBB3) of the same molecule?
Its remaining binding at 1 µM is 89%.

And the remaining binding at 1 µM (EPHA8)?
Its remaining binding at 1 µM is 89%.

And the remaining binding at 1 µM (MRCKB)?
Its remaining binding at 1 µM is 80%.

What about the remaining binding at 1 µM (PDGFRA) of the same molecule?
Its remaining binding at 1 µM is 100%.

What about the remaining binding at 1 µM (CDK7) of the same molecule?
Its remaining binding at 1 µM is 100%.

What about the remaining binding at 1 µM (WNK2) of the same molecule?
The remaining binding at 1 µM was 92%.

And the remaining binding at 1 µM (WEE1)?
Its remaining binding at 1 µM is 85%.

What about the remaining binding at 1 µM (YANK1) of the same molecule?
The remaining binding at 1 µM was 3.6%.

What about the GI50 (BaF3-FL-EGFR-del19-T790M) of the same molecule?
The GI50 was < 0.3 nM.

What about the remaining binding at 1 µM (CDK11) of the same molecule?
Its remaining binding at 1 µM is 100%.

And the remaining binding at 1 µM (FGFR1)?
The remaining binding at 1 µM was 100%.

And the remaining binding at 1 µM (NEK4)?
The remaining binding at 1 µM was 100%.

What about the remaining binding at 1 µM (PRKX) of the same molecule?
Its remaining binding at 1 µM is 81%.

What about the remaining binding at 1 µM (VEGFR2) of the same molecule?
Its remaining binding at 1 µM is 100%.

And the remaining binding at 1 µM (PIK3CA(E542K))?
Its remaining binding at 1 µM is 93%.

And the remaining binding at 1 µM (SRMS)?
Its remaining binding at 1 µM is 11%.

What about the GI50 [3] of the same molecule?
Its GI50 is 340 nM.

And the remaining binding at 1 µM (RET(M918T))?
Its remaining binding at 1 µM is 100%.
